One compound from paper PMC5844530, “Fosmetpantotenate (RE-024), a phosphopantothenate replacement therapy for pantothenate kinase-associated neurodegeneration: Mechanism of action and efficacy in nonclinical models” (PLoS ONE, 2018) can be followed below.

Data set [1] is described as follows: In vitro blood-brain barrier permeability (PBEC/rat astrocyte co-culture). As to conditions: pH 7.4, In Vitro Measured Papp, mean ± SD (n = 3).
Data set [2] deals with porcine brain endothelial cell (PBEC) co-culture model. The description is as above. As to conditions: in words.

With `C=CCN1CC[C@]23c4c5ccc(O)c4O[C@H]2C(=O)CC[C@@]3(O)[C@H]1C5` [Naloxone], the apparent permeability (Papp) (usually the rate of passage across a membrane or cell layer, normalised by area and donor concentration) at 1 h in data set [1] was 42.3 ± 11 ×10⁻⁶ cm/s. Further, the “blood-brain barrier permeability classification” value in data set [2] is “high permeability range”.
